The record followed here is patent publication US20260335282A1, “NOVEL 3-ARYLIDENE-2-INDOLINONE DERIVATIVES FOR THERAPEUTIC USE” (ISTANBUL UNIVERSITESI REKTORLUGU, priority 2022, published 2026).

Values joined by “and” are separate entries in the source; they are usually repeats but may differ in a detail not shown here. Identical values can stand only once. “Also recorded” adds a separate entry of the source.

Holding throughout (format): cell-based, human
The subject of assay [1] is MCF-7 cells. Description: MTT cytotoxicity, breast cancer cells MCF-7. To be noted: MTT. In a few lines:
(§1)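 5000 cells/well; compounds 0.1–10 μM (0.1, 1, 5, 10 μM), 48 and/or 72 h. MTT 5 mg/ml, 4 h; formazan in DMSO; OD 570/630 nm. % viability vs matched-DMSO control; IC50 from dose-response curves; cell-free MTT+compound blanks.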

For assay [2], the system named is A549 cells. Briefly: MTT cytotoxicity, lung cancer cells A549. In a few lines: as §1
The test system of assay [3] is CAKI-1 cells. Description: MTT cytotoxicity, kidney cancer cells CAKI-1. In a few lines: as §1
For assay [4], the system named is A498 cells. Description: MTT cytotoxicity, kidney cancer cells A498. To be noted: for selectivity index: MCF-10F/Beas2b vs A498. In a few lines: as §1
Assay [5] deals with MCF-10F/Beas2b cells. Briefly: MTT cytotoxicity, healthy cells MCF-10F/Beas2b. To be noted: cancer line not given; for Selectivite Index (SI), MCF-10F/Beas2b (Table 1): MCF-10F/Beas2b vs breast or kidney cancer cells; for Selectivite Index, MCF-10F/Beas2b (Table 2): MCF-10F/Beas2b vs colon or pancreas cancer cells. In a few lines: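 Cells seeded at 5000 per well were exposed next day to compounds at 0.1, 1, 5 and 10 μM for 48 and/or 72 h. MTT (5 mg/ml) was added for 4 h, formazan dissolved in DMSO, and absorbance read at 570 nm against 630 nm. IC50 came from dose-response curves of % viability versus DMSO controls.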

Assay [6] concerns general tyrosine kinase activity in MIA PaCa-2 pancreas cancer cells. Briefly: General tyrosine kinase activity (ELISA) in MIAPaCa-2 cells. To be noted: 72 hours, IC50 concentration. How it is done:
Takara Universal Tyrosine Kinase Assay Kit is used to determine the effects of 11 2-indolinone compounds (Y1, Y2, Y3, Y4, Y5, Y8, […], […], Y21, Y23, 20C, 22C) on general tyrosine kinase activity in cancer cells. Cells are seeded in 6-well plates (4.10^5 cells/well) and the IC50 concentration of each selected molecule is performed to the cells for 48 or 72 hours. Cells in the control group are incubated with medium only. At the end of the incubation period, the cells in each well are washed with PBS and cells are removed from the wells using a cell scraper via 1 ml of the extraction buffer in the kit. The cell lysate is transferred to ependorf tubes and centrifuged at 10.000 g for 10 minutes at +4° C. and the supernatant is used as a sample for activity determination. After the extracts obtained from the control and experimental groups are diluted 1:25, 40 μl extracts is transferred to two wells in the 96-well plate in the kit. In addition, the standard solution in the kit is diluted according to the kit instructions and each concentration is transferred 40 μl into three wells. 10 μl of 40 mM ATP-2Na solution is added to all wells and the plate is incubated at 37° C. for 30 minutes. After incubation, all wells are washed 4 times with wash buffer. 100 μl of blocking solution is added to each well and incubated again at 37° C. for 30 minutes. After incubation, the liquid in the wells is discarded and 50 μl of anti-phosphotyrosine-HRP solution is added to each well and incubated at 37° C. for 30 minutes. The wells are washed again four times with wash buffer and 100 μl of HRP-substrate solution (TMBZ) is added to each well and incubated at 37° C. for 15 minutes. The reaction is finished by adding 100 μl of stop solution to each well and the optical density in each well is measured at 405 nm with a microplate reader (BioTek, USA). The tyrosine kinase activity in each sample is calculated from the standard curve obtained from the absorbance values of the standard solutions with the kit (Chan W Y, Lau P M, Yeung K W, Kong S K. The second generation tyrosine kinase inhibitor dasatinib induced eryptosis in human erythrocytes—An in vitro study. Toxicol Lett. 2018; 295:10-21). This activity is normalized compared to the control group by dividing by the amount of protein in each sample.
The effects of 11 2-indolinone compounds (Y1, Y2, Y3, Y4, Y5, Y8, Y14, Y21, Y23, 20C and 22C) having the structure of formula (5), which are prominent with their cytotoxicity in A498, MIAPaCa-2 and HCT-116 cancer cell lines and nontoxic properties in healthy cells, on general tyrosine kinase activity in cancer cells are determined.
(In general: ELISA stands for enzyme-linked immunosorbent assay.)

Setting [7] is: no * mark (incubation time not specified).
[8] abbreviates: MTT, no * mark (incubation time not specified).

The term IC50 denotes the concentration at which inhibition is half-maximal. Lower therefore signals higher potency. For the compound `Cc1ccc2c(c1)/C(=C/c1c[nH]c3ccccc13)C(=O)N2Cc1cccc(F)c1` [Y8], the IC50 was 5.79 µM in assay [1] (setting [7]), 8.76 µM in assay [2] (setting [7]), 3.28 µM in assay [3] (setting [7]) and 0.93 µM in assay [4] (setting [8]). Besides, the selectivity index in assay [4] was more than 11. Further, in assay [5], the “Selectivite Index (SI), MCF-10F/Beas2b (Table 1)” value was more than 10.75. Moreover, the “Selectivite Index, MCF-10F/Beas2b (Table 2)” value in assay [5] is more than 18.52. The “general tyrosine kinase activity compared to control” value in assay [6] is listed as “significantly decreased; also recorded: decreased the general tyrosine kinase activity”.

Regarding `Cc1ccc2c(c1)/C(=C/c1c[nH]c3ccccc13)C(=O)N2Cc1ccccc1` [Y3], the IC50 in assay [1] (Homo sapiens, MCF7, no * mark (incubation time not given)) was determined as 4.75 µM; in assay [2] (Homo sapiens, A549, no * mark (incubation time not given)) it was 3.97 µM; in assay [3] (Homo sapiens, CAKI-1, no * mark (incubation time not given)), 4.01 µM; in assay [4] (Homo sapiens, A498, MTT, no * mark (incubation time not given)), 0.87 µM. The selectivity index in assay [4] is listed as more than 11. Further, in assay [5], the “Selectivite Index (SI), MCF-10F/Beas2b (Table 1)” value was more than 11.49. In addition, the “Selectivite Index, MCF-10F/Beas2b (Table 2)” value in assay [5] was more than 76.92. The “general tyrosine kinase activity compared to control” value in assay [6] is given as “significantly decreased; also recorded: decreased the general tyrosine kinase activity”.

Turning to `O=C1/C(=C\c2c[nH]c3ccccc23)c2cc(OC(F)(F)F)ccc2N1Cc1ccccc1` [Y4], the IC50 in assay [1] (setting [7]) was more than 10 µM; in assay [2] (setting [7]), more than 10 µM; in assay [3] (setting [7]), 3.79 µM; in assay [4] (setting [8]) it was 4.23 µM. Also, the “Selectivite Index, MCF-10F/Beas2b (Table 2)” value in assay [5] was > 17.54 and > 18.87. Moreover, in assay [6], the “general tyrosine kinase activity compared to control” value is reported as “significantly decreased; also recorded: decreased the general tyrosine kinase activity”.

For the compound `O=C1/C(=C\c2c[nH]c3ccccc23)c2ccccc2N1Cc1ccccc1` [Y1], the IC50 in assay [1] (setting [7]) came out at 6.34 µM; in assay [2] (setting [7]) it was 9.72 µM; in assay [3] (setting [7]), 3.38 µM; in assay [4] (setting [8]), 4.11 µM. For the same compound, the “Selectivite Index, MCF-10F/Beas2b (Table 2)” value in assay [5] is on record as more than 23.25. Besides, the “general tyrosine kinase activity compared to control” value in assay [6] was “significantly decreased; also recorded: decreased the general tyrosine kinase activity”.
